Source: PubChem BioAssay (NCI)
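Interpolation was linear, between the two tested concentrations surrounding the appropriate level; five concentrations were tested over 48 hours in 96-well plates. TGI is the concentration that stops growth completely.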

Key:
P388 leukemia = test: NCI tumour cell line growth inhibition, 48 h
P388/ADR leukemia = test: NCI tumour cell line growth inhibition, 48 h

Row | SMILES | TGI (P388 leukemia) [nM] | TGI (P388/ADR leukemia) [µM]
1 | CC1=CCCC2C1(C)CCC(C)C2(C)Cc1cc(O)ccc1O (stereo unspecified) | 4940 | 13
2 | COc1cc2c(c(OC)c1OC)-c1ccc(OC)c(=O)cc1[C@@H](NC(C)=O)CC2 | 2700 | 55.9
3 | O=C1NC2C(=CC(O)C(O)C2O)c2cc3c(cc21)OCO3 (stereo unspecified) | 461 | 0.714
